One assay addresses T1, Bcl-xL/Bak complex (Homo sapiens, UniProt Q07817).
T1 construct: made in house
Description: Fluorescence polarization competition assay (displacement of fluorescein-labeled Bak peptide from Bcl-xL). The conditions noted are these: for Ki / K1 ± S.D.: 15 nM Fl-Bak, 184 nM Bcl-xL, 10 mM PBS pH 7.4, 25° C., mean of three independent experiments; for Ki: read-out: K1 ± S.D.; for affinity / activity in disrupting the Bcl-xL/Bak interaction (in words): summary of Table 1. The assay is classed as binding. As to the method: Fluorescence polarization experiments were conducted on a Photon Technology International instrument using a 0.3 cm path length cuvette.

For a further assay, the target named is 15N-labeled Bcl-xL (Homo sapiens, UniProt Q07817). Description: (15N,1H)-2D-HSQC amide chemical shift perturbation mapping. The assay is classed as binding. The conditions noted are these: 2 mM Bcl-xL, 0, 1, 2 mM compound, 10% DMSO/D2O, 25° C., PBS pH 7.0. As for the experimental part: (^15N, ^1H)-2D-HSQC spectra were recorded on a Varian DPX-600 spectrometer. The concentration of Bcl-xL was 2 mM, with 0, 1 mM, 2 mM 3-26, respectively, in 10% DMSO/D2O (25° C., 10.0 mM PBS, pH 7.0).
15N-labeled Bcl-xL, sequence (Q07817 whole entry): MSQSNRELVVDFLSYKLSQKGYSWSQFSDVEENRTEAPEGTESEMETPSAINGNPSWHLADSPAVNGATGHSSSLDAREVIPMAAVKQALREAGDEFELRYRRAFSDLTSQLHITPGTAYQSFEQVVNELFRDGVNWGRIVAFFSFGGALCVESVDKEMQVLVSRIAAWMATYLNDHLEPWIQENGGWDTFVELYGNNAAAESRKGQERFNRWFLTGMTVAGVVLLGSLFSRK
To structurally probe the binding mode of the terephthalamide, (^15N, ^1H)-2D-amide chemical shift perturbation mapping with ^15N-labeled Bcl-xL were performed as above. Addition of compound 3-26 led to shifts in a number of residues on the surface of Bcl-xL. […] These affected residues all lie in the shallow cleft on the protein into which the Bak helix binds.

The structures appear in SMILES notation. Values joined by “and” are separate entries in the source; they are usually repeats but may differ in a detail not shown here. Identical values can stand only once.

T1 sequence (Q07817 whole entry, species assumed, one chain of several): as the sequence (Q07817 whole entry) above

For `COC(=O)[C@H](CC(C)C)NC(=O)c1ccc(C(=O)N(C(C)C)C(C)C)cc1OC(C)C` [Compound 3-9, (S)-2-(4-Diisopropylcarbamoyl-2-isopropoxy-benzoylamino)-4-methyl-pentanoic acid methyl ester], at Bcl-xL/Bak complex, the Ki is 0.78 µM and 0.781 µM; the “affinity / activity in disrupting the Bcl-xL/Bak interaction (in words)” value (from here on “affinity / activity”) is on record as “low micro-molar Ki values”.

Turning to `CC(C)C[C@H](NC(=O)c1ccc(C(=O)N(C(C)C)C(C)C)cc1OC(C)C)C(=O)O` [Compound 3-10], the Ki on Bcl-xL/Bak complex came to 0.839 ± 0.171 µM. For the compound `CC(C)C[C@H](NC(=O)c1ccc(C(=O)N(C(C)C)C(C)C)cc1NC(C)C)C(=O)O` [Compound 3-17, (S)-2-(4-Diisopropylcarbamoyl-2-isopropylamino-benzoylamino)-4-methyl-pentanoic acid], the Ki at Bcl-xL/Bak complex came out at 3.31 ± 0.345 µM. In addition, the “affinity less than 2-isopropoxy analogue 3-10” value on Bcl-xL/Bak complex (relative to 3-10) was 4 fold. In the case of `COC(=O)[C@H](CC(C)C)NC(=O)c1ccc(C(=O)N(CC(C)C)[C@@H](C)C(=O)OC)cc1OC(C)C` [Compound 3-22, (S)-2-{4-[Isobutyl-((S)-1-methoxycarbonyl-ethyl)-carbamoyl]-2-isopropoxy-benzoylamino}-4-methyl-pentanoic acid methyl ester], on Bcl-xL/Bak complex, the “K1 ± S.D.” value is “No affinity” and the “affinity / activity” value is reported as “did not show activity”. `COC(=O)[C@H](CC(C)C)NC(=O)c1ccc(C(=O)N(C(C)C)C(C)C)cc1OC` [Compound 3-26, (S)-2-(4-Diisopropylcarbamoyl-2-methoxy-benzoylamino)-4-methyl-pentanoic acid methyl ester]: the “amide chemical shift changes of Bcl-xL residues on addition of inhibitor” value at 15N-labeled Bcl-xL was “significant chemical shift changes”. In addition, at Bcl-xL/Bak complex, the Ki worked out at 1.85 ± 0.318 µM.

Consider `COC(=O)[C@H](C)NC(=O)c1ccc(C(=O)N(C)C)cc1OC(C)C` [Compound 3-33, (S)-2-(4-Dimethylcarbamoyl-2-isopropoxy-benzoylamino)-propionic acid methyl ester], for which, at Bcl-xL/Bak complex, the Ki was 8.34 ± 1.61 µM. As for `CC(C)Oc1cc(C(=O)N(C)C)ccc1C(=O)N[C@@H](Cc1ccccc1)C(=O)O` [Compound 3-35, (S)-2-(4-Dimethylcarbamoyl-2-isopropoxy-benzoylamino)-3-phenyl-propionic acid], the Ki on Bcl-xL/Bak complex is 8.92 ± 3.59 µM.

`CCN(CC)C(=O)c1ccc(C(=O)N[C@@H](C)C(=O)OC)c(OC(C)C)c1` [Compound 3-37, (S)-2-(4-Diethylcarbamoyl-2-isopropoxy-benzoylamino)-propionic acid methyl ester]: on Bcl-xL/Bak complex, the Ki came out at 2.44 ± 0.947 µM and the “affinity / activity” value is reported as “low micro-molar Ki values”. Take `CCN(CC)C(=O)c1ccc(C(=O)N[C@@H](CC(C)C)C(=O)OC)c(OC(C)C)c1` [Compound 3-38, (S)-2-(4-Diethylcarbamoyl-2-isopropoxy-benzoylamino)-4-methyl-pentanoic acid methyl ester]: the Ki at Bcl-xL/Bak complex is 11.4 ± 5.09 µM.

As to `COC(=O)[C@H](C)NC(=O)c1ccc(C(=O)N(CC(C)C)CC(C)C)cc1OC(C)C` [Compound 3-39, (S)-2-(4-Diisobutylcarbamoyl-2isopropoxy-benzoylamino)-propionic acid methyl ester], at Bcl-xL/Bak complex, the Ki turned out to be 8.76 ± 2.78 µM. On to `COC(=O)[C@H](CC(C)C)NC(=O)c1ccc(C(=O)N(CC(C)C)CC(C)C)cc1OC(C)C` [Compound 3-40, (S)-2-(4-Diisobutylcarbamoyl-2-isopropoxy-benzoylamino)-4-methyl-pentanoic acid methyl ester], for which the Ki at Bcl-xL/Bak complex turned out to be 8.36 ± 3.8 µM.

In the case of `COC(=O)[C@@H](NC(=O)c1ccc(C(=O)N(CC(C)C)CC(C)C)cc1OC(C)C)C(C)C` [Compound 3-41, (S)-2-(4-Diisobutylcarbamoyl-2-isopropoxy-benzoylamino)-3-methyl-butyric acid methyl ester], the Ki at Bcl-xL/Bak complex stood at 138 ± 49.5 µM.

With `CC(C)Oc1cc(C(=O)N(c2ccccc2)c2ccccc2)ccc1C(=O)N[C@@H](C)C(=O)O` [Compound 3-42, (S)-2-(4-Diphenylcarbamoyl-2-isopropoxy-benzoylamino)-propionic acid], at Bcl-xL/Bak complex, the Ki was determined as 260 ± 58 µM and the “affinity / activity” value was “most of the affinity was lost”.

On to `CC(C)C[C@H](NC(=O)c1ccc(C(=O)N(c2ccccc2)c2ccccc2)cc1OC(C)C)C(=O)O` [Compound 3-43, (S)-2-(4-Diphenylcarbamoyl-2-isopropoxy-benzoylamino)-4-methyl-pentanoic acid], for which, at Bcl-xL/Bak complex, the Ki stood at 780 ± 174 µM and the “affinity / activity” value was “most of the affinity was lost”. In the case of `COC(=O)[C@H](CC(C)C)NC(=O)c1ccc(C(=O)N(c2ccccc2)c2ccccc2)cc1OC(C)C` [Compound 3-44, (S)-2-(4-Diphenylcarbamoyl-2-isopropoxy-benzoylamino)-4-methyl-pentanoic acid methyl ester], at Bcl-xL/Bak complex, the “K1 ± S.D.” value is given as “No affinity” and the “affinity / activity” value is “most of the affinity was lost”.

Take `CC(C)Oc1cc(C(=O)N(c2ccccc2)c2ccccc2)ccc1C(=O)N[C@@H](Cc1ccccc1)C(=O)O` [Compound 3-45, (S)-2-(4-Diphenylcarbamoyl-2-isopropoxy-benzoylamino)-3-phenyl-propionic acid]: at Bcl-xL/Bak complex, the “K1 ± S.D.” value was “No affinity” and the “affinity / activity” value is given as “most of the affinity was lost”.

In the case of `CC(C)CC(NC(=O)c1ccc(C(=O)NCC(=O)O)cc1O)C(=O)O` (centres unmarked) [Compound 3-46], the “K1 ± S.D.” value on Bcl-xL/Bak complex is “No affinity”.

Source of the values: patent US20070123592A1, “Terephthalamide peptidomimetic compounds and methods” (YALE UNIVERSITY, priority 2004, published 2007).
